In patent US12521356B2, “Compositions and methods for treating pain, inflammation, infection, malaria, and sepsis” (Duke University, priority 2018, dated 2026):
One block for each compound: values may come before it.

Assays:
GPR32 = target: T1, GPR32 (Homo sapiens, UniProt O75388); experiment: Dot blot binding assay, positive control GPR32
T1 construct: host or cells: HEK293 flip-in cells
Experimental: (§1) Lipids overlay assay. Lipids membrane coating and protein overlay assay was conducted as previously described (Ji R R, et al. Science 2016, 354, 572-577). Ethanol and chloroform soluble fatty acids were directly loaded on hydrophobic PVDF membrane (Bio-Rad). The fatty acids (NPD1, RvD1, RvE1, and DHA) coated membranes were dried and blocked with 1% BSA. The cell lysate and purified GPR37-V5 protein were incubated with the coating membrane for 2 h, and the binding was detected by anti-V5 tagged antibody (mouse, 1:1000, Thermo scientific, Catalog: 46-0705).
(§2) HEK cell culture and transfection. HEK293 flip-in cell line was purchased from Duke Cell Culture Facility. Cells were cultured in high glucose (4.5 g/L) Dulbecco's Modified Eagle's Medium containing 10% (v/v) fetal bovine serum (Gibco). Transfection (2 μg cDNA) was performed with Lonza electroporation (Lonza) at 70% confluency and the transfected cells were cultured in the same growth medium for 48 h before use. The hGPR37-V5 pLenti304 plasmids were obtained from DNASU (Tempe, AZ), and hGPR32, hChemR23 and hALX pcDNA3 plasmids were provided by Dr. Serhan from Harvard Medical School, Boston.
(§3) To determine whether NPD1 and TX14 bind to GPR37, we conducted dot blot assay by coating the blots with different concentrations of NPD1 and TX14 and included RvE1 as a control. […]

CHEM23 = target: T2, CHEM23 (Homo sapiens, UniProt Q99788); experiment: Dot blot binding assay, positive control CHEM23
T2 sequence (Q99788 1-373): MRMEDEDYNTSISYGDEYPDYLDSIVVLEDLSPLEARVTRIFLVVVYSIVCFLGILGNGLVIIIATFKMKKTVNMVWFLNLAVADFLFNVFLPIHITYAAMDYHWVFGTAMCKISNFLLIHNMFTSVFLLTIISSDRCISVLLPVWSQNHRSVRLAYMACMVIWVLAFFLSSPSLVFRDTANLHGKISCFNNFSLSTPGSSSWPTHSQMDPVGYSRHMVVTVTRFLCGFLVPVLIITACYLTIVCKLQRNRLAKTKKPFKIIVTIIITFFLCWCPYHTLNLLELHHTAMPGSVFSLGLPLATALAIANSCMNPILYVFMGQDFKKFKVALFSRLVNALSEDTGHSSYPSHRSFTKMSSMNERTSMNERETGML
Experimental: as §1, §2, §3

GPR37 = experiment: Ca2+ imaging (Fluo-4AM) in peritoneal macrophages (pMΦ) from WT and Gpr37−/− mice; assay type: cell-based, mouse; details: 30 nM; Gpr37-deficient pMΦ
Experimental: (§4) Peritoneal macrophage culture. Peritoneal macrophages were collected by peritoneal lavage with 10 ml warm PBS containing of 1 mM EDTA. Cells were incubated in DMEM supplemented with 10% FBS at 37° C. for 2 h in petri dish and washed with PBS to eliminate non-adherent cells. The adherent cells were used as peritoneal macrophages. Peritoneal macrophages were used after 3 days of culture.
Calcium imaging. HEK 293 cells, with or without transfection of Gpr37, GPR32, ChemR23 or ALX1 cDNA, were loaded with 5 μM Fura-2AM (Invitrogen) for 1 hour and then were resuspended in normal external buffer (140 NaCl, 5 KCl, 2 CaCl2, 2 MgCl2, 10 HEPES, in mM, titrated to pH 7.4 with NaOH) or external Ca^2+-free buffer (140 NaCl, 2 MgCl2, 5 EGTA, 10 HEPES, in mM, titrated to pH 7.4 with NaOH). Peritoneal macrophages, collected from WT and Gpr37 KO mice, were loaded with 5 μM […] (Invitrogen) for 1 hour and then were resuspended in normal external buffer. Images of the HEK 293 cells and macrophages with the excitation wavelength of 340 nm and 380 nm were captured with a cooled Digital CMOS camera (ORCA-Flash 4.0, Hamamatsu Photonics K.K, Japan). The ratio of fluorescence intensity of the two wavelengths in each experiment was analyzed using MetaFluor (Molecular Devices). The Shutter speed and wavelength was controlled by Lambda DG-4 system (Sutter instrument Co., Novato, CA). Values from each of the experiments were normalized to the baseline ratio of 340/380 nm.
Next, we conducted GPR37-mediated Ca^2+ imaging in native pMΦ from WT and Gpr37^−/− mice using Fluo-4AM as a Ca^2+ indicator, since this dye works better than Fura-2AM for pMΦ. […] As compared to iCa^2+ increase in GPR37-expressing HEK293 cells, NPD1 trigger a slow-onset but more persistent Ca^2+ response in pMΦ (FIG. 2B and FIG. 2G). A relatively rapid calcium response in HEK293 cells may result from over-expression of GPR37. A sustained iCa^2+ increase in pMΦ may result from the expression of transient receptor potential (TRP) ion channels in these immune cells. It is noteworthy that macrophages express TRPV2 or TRPM2, which are involved in phagocytosis during bacterial infection. […] NPD1-triggered iCa^2+ increase in pMΦ is also Gi-dependent, since PTX blocked this increase (FIG. 2H). For comparison, ATP-evoked iCa^2+ increase was not altered in GPR37-deficient pMΦ (FIG. 2H).

pMΦ = experiment: ELISA of cytokines in zymosan-stimulated pMΦ cultures; assay type: cell-based, mouse
Experimental: FIG. 14A-FIG. 14C. NPD1 regulates cytokine expression in cultured macrophages via GPR37. ELISA showing the expression of pro-inflammatory cytokine IL-1β (FIG. 14A) and anti-inflammatory cytokines IL-10 (FIG. 14B) and TGF-β (FIG. 14C) in pMΦ from WT and Gpr37^−/− mice. pMΦ were stimulated with 100 μg/mL zymosan for 24 h. Note that NPD1 differentially regulates the expression of pro- and anti-inflammatory cytokines. *P<0.05; n=3 cultures/group. All the data are mean±SEM.
ELISA. Mouse ELISA kits for IL-1β, TGF-β and IL10 were purchased from R&D system (Minneapolis, MN, Catalog: MLB00C for IL-1β, Catalog: MB100B for TGF-β, and Catalog: M1000B for IL-10). ELISA was performed using culture medium and hindpaw skin tissues. Cultured cells and tissues were homogenized in a lysis buffer containing protease and phosphatase inhibitors. For each Elisa assay, 50 μg proteins or 50 μL of culture medium were used. ELISA was conducted according to manufacturer's instructions. The standard curve was included in each experiment.
as §4

[1] = pMΦ cultures, zymosan 100 μg/mL for 24 h

T1 sequence (O75388 whole entry): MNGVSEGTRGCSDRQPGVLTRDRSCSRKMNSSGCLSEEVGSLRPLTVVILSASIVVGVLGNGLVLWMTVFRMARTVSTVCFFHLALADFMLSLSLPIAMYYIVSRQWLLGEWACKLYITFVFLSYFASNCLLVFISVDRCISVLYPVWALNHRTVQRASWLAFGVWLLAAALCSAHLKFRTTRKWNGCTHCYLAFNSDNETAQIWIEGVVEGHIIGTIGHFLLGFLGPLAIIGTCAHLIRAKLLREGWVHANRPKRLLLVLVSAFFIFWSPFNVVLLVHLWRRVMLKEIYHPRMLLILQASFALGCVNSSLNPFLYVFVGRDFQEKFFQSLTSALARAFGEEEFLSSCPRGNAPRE

binding to GPR32 (GPR32): strong binding
SMILES: CC/C=C\C[C@H](O)/C=C/C=C\C=C\C=C\[C@@H](O)[C@@H](O)C/C=C\CCC(=O)O [RvD1]

binding to CHEM23 (CHEM23): strong binding
SMILES: CC[C@@H](O)/C=C/C=C\C[C@@H](O)/C=C/C=C/C=C\[C@@H](O)CCCC(=O)O [RvE1]

SMILES: CC/C=C\C[C@H](O)\C=C/C=C/C=C/[C@H](O)C/C=C\C/C=C\CCC(=O)O [NPD1, neuroprotectin D1]
iCa2+ increase (GPR37): abolished | IL-1β levels (pMΦ; [1]): suppressed | IL-10 levels (pMΦ; [1]): increased | TGF-β levels (pMΦ; [1]): increased | dependence of cytokine effects on GPR37 (pMΦ; pMΦ from WT and Gpr37−/− mice): required GPR37
